Tested on: P388 tumor cells
Parameters: species or system Male CD2-F₁ mice
Details: mouse, in vivo, po
Source text: The tests employed for evaluating the antitumour activity of compounds of the present invention are essentially those used in the Tumor Panel of the Developmental Therapeutics Program, Divison of Cancer Treatment National Cancer Institute, A Goldin, et al., Methods in Cancer Research, Vol. XVI, p. 165, Academic Press (1979). Some modifications in dose level and schedule have been made to increase the testing efficiency.
Male CD2-F₁ mice, weighing 20 ± 3 g, were used for this test. Control and test animals were injected intraperitioneally with a suspension of ∼10⁶ viable P388 tumor cells on day 0. In each test, several dose levels which bracketed the LD₂₀ of the compound were evaluated; each dose level group contained six animals. The test compounds were prepared either in physiologic saline containing 0.05% Tween 80 or distilled water containing 5% dextrose and were administered (a) orally, (b) intravenously or (c) intraperitoneally according to the indicated schedule relative to the day of tumour implant. Doses were on a mg/kg basis according to individual animals' body weights. The day of death for each animal was recorded, the median identified for each group and the percent increase in life span (%ILS) was calculated from the ratios of median survival time for treated to control groups. The criterion for activity is % ILS greater than or equal to 20%.

Nc1ncnc2c1ncn2[C@@H]1CC[C@@H](O)[C@H]1O (racemic) [(±)-(1R*,2S*,3R*)-3-(6-amino-9H-purin-9-yl)-1,2-cyclopentanediol]
Toxic at:: 35 mg/kg
